{"source": "PubChem BioAssay (NCI)", "assay_in_all_cases": "inhibition of tumour cell growth, NCI panel, 48 h", "key": {"[1]": {"system": "786-0 renal"}, "[2]": {"system": "A498 renal"}, "[3]": {"system": "A549 NSCLC"}, "[4]": {"system": "ACHN renal"}, "[5]": {"system": "BT-549 breast"}, "[6]": {"system": "CAKI-1 renal"}, "[7]": {"system": "DU-145 prostate"}, "[8]": {"system": "EKVX NSCLC"}, "[9]": {"system": "HCC-2998 colon"}, "[10]": {"system": "HCT-116 colon"}, "[11]": {"system": "HCT-15 colon"}, "[12]": {"system": "HL-60(TB) leukemia"}, "[13]": {"system": "HOP-62 NSCLC"}, "[14]": {"system": "HOP-92 NSCLC"}, "[15]": {"system": "HS 578T breast"}, "[16]": {"system": "IGROV1 ovarian"}, "[17]": {"system": "KM12 colon"}, "[18]": {"system": "LOX IMVI melanoma"}, "[19]": {"system": "M14 melanoma"}, "[20]": {"system": "MCF7 breast"}, "[21]": {"system": "MDA-MB-231 breast"}, "[22]": {"system": "MDA-MB-435"}, "[23]": {"system": "MDA-N"}, "[24]": {"system": "MOLT-4 leukemia"}, "[25]": {"system": "NCI-H226 lung"}, "[26]": {"system": "NCI-H460 lung"}, "[27]": {"system": "NCI-H522 lung"}, "[28]": {"system": "NCI/ADR-RES ovarian"}, "[29]": {"system": "OVCAR-3 ovarian"}, "[30]": {"system": "OVCAR-4 ovarian"}, "[31]": {"system": "OVCAR-5 ovarian"}, "[32]": {"system": "OVCAR-8 ovarian"}, "[33]": {"system": "PC-3 prostate"}, "[34]": {"system": "RPMI-8226 leukemia"}, "[35]": {"system": "SF-268 CNS"}, "[36]": {"system": "SF-295 CNS"}, "[37]": {"system": "SF-539 CNS"}, "[38]": {"system": "SK-MEL-2 melanoma"}, "[39]": {"system": "SK-MEL-28 melanoma"}, "[40]": {"system": "SK-MEL-5 melanoma"}, "[41]": {"system": "SK-OV-3 ovarian"}, "[42]": {"system": "SN12C renal"}, "[43]": {"system": "SNB-19 CNS"}, "[44]": {"system": "SNB-75 CNS"}, "[45]": {"system": "SR leukemia"}, "[46]": {"system": "SW-620 colon"}, "[47]": {"system": "TK-10 renal"}, "[48]": {"system": "UACC-257 melanoma"}, "[49]": {"system": "UACC-62 melanoma"}, "[50]": {"system": "UO-31 renal"}, "[51]": {"system": "CCRF-CEM leukemia"}, "[52]": {"system": "HT29 colon"}, "[53]": {"system": "MALME-3M melanoma"}, "[54]": {"system": "NCI-H23 lung"}, "[55]": {"system": "RXF 393 renal"}, "[56]": {"system": "U251 CNS"}}, "note": "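Each compound was tested at five concentrations against cells in 96-well plates for 48 hours. TGI is the concentration that stops growth completely.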"}
{"smiles": "CC(=O)O[C@H]1C(=O)[C@@]2(C)[C@H]([C@H](OC(=O)c3cccc([N+](=O)[O-])c3)[C@]3(O)C[C@H](OC(=O)[C@H](O)[C@@H](NC(=O)c4ccccc4)c4ccccc4)C(C)=C1C3(C)C)[C@]1(OC(C)=O)CO[C@@H]1C[C@@H]2O", "values": [{"measurement": "TGI", "setting": "[1]", "result": "> 25", "unit": "µM"}, {"measurement": "TGI", "setting": "[2]", "result": 18.5, "unit": "µM"}, {"measurement": "TGI", "setting": "[3]", "result": "> 25", "unit": "µM"}, {"measurement": "TGI", "setting": "[4]", "result": "> 25", "unit": "µM"}, {"measurement": "TGI", "setting": "[5]", "result": "> 25", "unit": "µM"}, {"measurement": "TGI", "setting": "[6]", "result": "> 25", "unit": "µM"}, {"measurement": "TGI", "setting": "[7]", "result": "> 25", "unit": "µM"}, {"measurement": "TGI", "setting": "[8]", "result": "> 25", "unit": "µM"}, {"measurement": "TGI", "setting": "[9]", "result": "> 25", "unit": "µM"}, {"measurement": "TGI", "setting": "[10]", "result": "> 25", "unit": "µM"}, {"measurement": "TGI", "setting": "[11]", "result": "> 25", "unit": "µM"}, {"measurement": "TGI", "setting": "[12]", "result": "< 0.0025", "unit": "µM"}, {"measurement": "TGI", "setting": "[13]", "result": "> 25", "unit": "µM"}, {"measurement": "TGI", "setting": "[14]", "result": "> 25", "unit": "µM"}, {"measurement": "TGI", "setting": "[15]", "result": 0.00761, "unit": "µM"}, {"measurement": "TGI", "setting": "[16]", "result": "> 25", "unit": "µM"}, {"measurement": "TGI", "setting": "[17]", "result": "> 25", "unit": "µM"}, {"measurement": "TGI", "setting": "[18]", "result": "> 25", "unit": "µM"}, {"measurement": "TGI", "setting": "[19]", "result": 8.52, "unit": "µM"}, {"measurement": "TGI", "setting": "[20]", "result": "> 17.1", "unit": "µM"}, {"measurement": "TGI", "setting": "[21]", "result": "> 25", "unit": "µM"}, {"measurement": "TGI", "setting": "[22]", "result": 0.0114, "unit": "µM"}, {"measurement": "TGI", "setting": "[23]", "result": 0.0115, "unit": "µM"}, {"measurement": "TGI", "setting": "[24]", "result": "> 20.3", "unit": "µM"}, {"measurement": "TGI", "setting": "[25]", "result": "> 25", "unit": "µM"}, {"measurement": "TGI", "setting": "[26]", "result": "> 25", "unit": "µM"}, {"measurement": "TGI", "setting": "[27]", "result": 0.0161, "unit": "µM"}, {"measurement": "TGI", "setting": "[28]", "result": "> 25", "unit": "µM"}, {"measurement": "TGI", "setting": "[29]", "result": 0.0183, "unit": "µM"}, {"measurement": "TGI", "setting": "[30]", "result": "> 25", "unit": "µM"}, {"measurement": "TGI", "setting": "[31]", "result": 16.4, "unit": "µM"}, {"measurement": "TGI", "setting": "[32]", "result": "> 25", "unit": "µM"}, {"measurement": "TGI", "setting": "[33]", "result": "> 25", "unit": "µM"}, {"measurement": "TGI", "setting": "[34]", "result": 18.1, "unit": "µM"}, {"measurement": "TGI", "setting": "[35]", "result": "> 25", "unit": "µM"}, {"measurement": "TGI", "setting": "[36]", "result": 0.15, "unit": "µM"}, {"measurement": "TGI", "setting": "[37]", "result": 0.00254, "unit": "µM"}, {"measurement": "TGI", "setting": "[38]", "result": "> 25", "unit": "µM"}, {"measurement": "TGI", "setting": "[39]", "result": "> 25", "unit": "µM"}, {"measurement": "TGI", "setting": "[40]", "result": "> 9.01", "unit": "µM"}, {"measurement": "TGI", "setting": "[41]", "result": "> 25", "unit": "µM"}, {"measurement": "TGI", "setting": "[42]", "result": "> 25", "unit": "µM"}, {"measurement": "TGI", "setting": "[43]", "result": "> 25", "unit": "µM"}, {"measurement": "TGI", "setting": "[44]", "result": 0.295, "unit": "µM"}, {"measurement": "TGI", "setting": "[45]", "result": 0.113, "unit": "µM"}, {"measurement": "TGI", "setting": "[46]", "result": "> 25", "unit": "µM"}, {"measurement": "TGI", "setting": "[47]", "result": "> 21.8", "unit": "µM"}, {"measurement": "TGI", "setting": "[48]", "result": "> 25", "unit": "µM"}, {"measurement": "TGI", "setting": "[49]", "result": "> 25", "unit": "µM"}, {"measurement": "TGI", "setting": "[50]", "result": "> 25", "unit": "µM"}]}
{"smiles": "CC(C)=CCC[C@]1(C)C=Cc2c(O)c3c(c(CC=C(C)C)c2O1)O[C@]12C(=C[C@@H]4CC1C(C)(C)O[C@@]2(C/C=C(/C)C(=O)O)C4=O)C3=O", "values": [{"measurement": "TGI", "setting": "[1]", "result": 2.4, "unit": "µM"}, {"measurement": "TGI", "setting": "[2]", "result": 3.98, "unit": "µM"}, {"measurement": "TGI", "setting": "[3]", "result": 3.71, "unit": "µM"}, {"measurement": "TGI", "setting": "[4]", "result": 1.37, "unit": "µM"}, {"measurement": "TGI", "setting": "[5]", "result": 7.03, "unit": "µM"}, {"measurement": "TGI", "setting": "[6]", "result": 3.66, "unit": "µM"}, {"measurement": "TGI", "setting": "[51]", "result": 1.45, "unit": "µM"}, {"measurement": "TGI", "setting": "[8]", "result": 4.39, "unit": "µM"}, {"measurement": "TGI", "setting": "[9]", "result": 2.81, "unit": "µM"}, {"measurement": "TGI", "setting": "[10]", "result": 1.5, "unit": "µM"}, {"measurement": "TGI", "setting": "[12]", "result": 0.706, "unit": "µM"}, {"measurement": "TGI", "setting": "[13]", "result": 3.11, "unit": "µM"}, {"measurement": "TGI", "setting": "[14]", "result": 9.16, "unit": "µM"}, {"measurement": "TGI", "setting": "[15]", "result": 9.68, "unit": "µM"}, {"measurement": "TGI", "setting": "[52]", "result": 1.85, "unit": "µM"}, {"measurement": "TGI", "setting": "[16]", "result": 2.81, "unit": "µM"}, {"measurement": "TGI", "setting": "[17]", "result": 2.25, "unit": "µM"}, {"measurement": "TGI", "setting": "[18]", "result": 4.95, "unit": "µM"}, {"measurement": "TGI", "setting": "[19]", "result": 3.19, "unit": "µM"}, {"measurement": "TGI", "setting": "[53]", "result": 3.76, "unit": "µM"}, {"measurement": "TGI", "setting": "[20]", "result": 1.42, "unit": "µM"}, {"measurement": "TGI", "setting": "[21]", "result": 4.23, "unit": "µM"}, {"measurement": "TGI", "setting": "[22]", "result": 3.72, "unit": "µM"}, {"measurement": "TGI", "setting": "[23]", "result": 4.59, "unit": "µM"}, {"measurement": "TGI", "setting": "[24]", "result": 1.8, "unit": "µM"}, {"measurement": "TGI", "setting": "[25]", "result": 3.93, "unit": "µM"}, {"measurement": "TGI", "setting": "[54]", "result": 3.24, "unit": "µM"}, {"measurement": "TGI", "setting": "[26]", "result": 3.27, "unit": "µM"}, {"measurement": "TGI", "setting": "[27]", "result": 2.32, "unit": "µM"}, {"measurement": "TGI", "setting": "[28]", "result": 6.96, "unit": "µM"}, {"measurement": "TGI", "setting": "[29]", "result": 2.67, "unit": "µM"}, {"measurement": "TGI", "setting": "[30]", "result": 13.6, "unit": "µM"}, {"measurement": "TGI", "setting": "[31]", "result": 2.94, "unit": "µM"}, {"measurement": "TGI", "setting": "[32]", "result": 4.19, "unit": "µM"}, {"measurement": "TGI", "setting": "[33]", "result": 2.23, "unit": "µM"}, {"measurement": "TGI", "setting": "[34]", "result": 1.61, "unit": "µM"}, {"measurement": "TGI", "setting": "[55]", "result": 2.34, "unit": "µM"}, {"measurement": "TGI", "setting": "[35]", "result": 3.91, "unit": "µM"}, {"measurement": "TGI", "setting": "[36]", "result": 10, "unit": "µM"}, {"measurement": "TGI", "setting": "[37]", "result": 0.477, "unit": "µM"}, {"measurement": "TGI", "setting": "[38]", "result": 4.13, "unit": "µM"}, {"measurement": "TGI", "setting": "[39]", "result": 3.26, "unit": "µM"}, {"measurement": "TGI", "setting": "[41]", "result": 8.54, "unit": "µM"}, {"measurement": "TGI", "setting": "[42]", "result": 4.69, "unit": "µM"}, {"measurement": "TGI", "setting": "[43]", "result": 7.36, "unit": "µM"}, {"measurement": "TGI", "setting": "[44]", "result": 3.28, "unit": "µM"}, {"measurement": "TGI", "setting": "[45]", "result": 0.939, "unit": "µM"}, {"measurement": "TGI", "setting": "[46]", "result": 2.89, "unit": "µM"}, {"measurement": "TGI", "setting": "[47]", "result": 2.47, "unit": "µM"}, {"measurement": "TGI", "setting": "[56]", "result": 3.31, "unit": "µM"}, {"measurement": "TGI", "setting": "[48]", "result": 6.8, "unit": "µM"}, {"measurement": "TGI", "setting": "[49]", "result": 4.57, "unit": "µM"}, {"measurement": "TGI", "setting": "[50]", "result": 3.73, "unit": "µM"}]}
